This is an account of results in patent US4711898A, “4-quinolone derivatives having anti-inflammatory, anti-allergic, antitussive, expectorant and antithrombotic activity” (Nippon Shinyaku Co., Ltd., priority 1982, dated 1987).

The first assay relates to carrageenin edema. Nature of the assay: Carrageenin edema at the hind foot of rats. It is filed as in vivo, SD-strain rats. Particulars: 200 mg/kg per os, one hour before carrageenin; foot volume three hours after. Here is the method:
The anti-inflammatory action of the compounds of the present invention were evaluated by measuring the inhibition against carrageenin edema as set forth below. Carrageenin edema at the hind foot of rats: Experimental method. SD-strain rats of body weights of around 150 grams were used, each group consisting of five rats. A solution (0.1 ml) of 0.5% carrageenin dissolved in physiological saline water was subcutaneously injected into the right hind foot pat of the rats and, one hour prior to the injection of carrageenin, 200 mg/kg of test compound was given per os. Foot volumes of the rats before the carrageenin treatment and those of three hours after the treatment were measured and the differences were compared with those of the control group to adopt as a target of the effect of the compounds.
In general terms: Carrageenan injected into the paw causes an acute inflammation.
Take “Ethyl 2-phenyl-4-quinolone-8-carboxylate [Example 80]”: the “% Inhibition (carrageenin edema)” value is 14.7%.

Still in this assay, the particulars now being: Rattus norvegicus, po, 3 h, 200 mg/kg per os, one hour before carrageenin; foot volume three hours after; read-out: % Inhibition (carrageenin edema).
Turning to `O=C(O)c1ccc2[nH]c(-c3ccccc3Cl)cc(=O)c2c1` [Example 22], the inhibition in vivo at 200 mg/kg amounted to 14.8%.
The same measure, in the same setting: the same measure for `COC(=O)c1ccc2c(c1)C(=O)CC(c1ccccc1)=N2` [Example 1, Methyl 2-phenyl-4-quinolone-6-carboxylate]: 34%.
Consider `CCOCCOC(=O)c1cccc2c(=O)cc(-c3ccccc3Cl)[nH]c12` [Example 120], for which the inhibition in vivo at 200 mg/kg came to 29.4%.
For `CCOC(=O)c1cccc2c(=O)cc(-c3ccccc3C)[nH]c12` [Example 104], the inhibition in vivo at 200 mg/kg is 53.7%.
The same measure, in the same setting: next, `COc1ccc(-c2cc(=O)c3cccc(C(=O)O)c3[nH]2)cc1OC` [Example 99]: 36.8%; `CCOC(=O)c1cccc2c(=O)cc(-c3ccc(C(C)C)cc3)[nH]c12` [Example 106]: 50.9%.
On the same count and under the same terms, next, `CCOC(=O)c1cccc2c(=O)cc(-c3cccc(Cl)c3)[nH]c12` [Example 86]: 29.5%; `COC(=O)c1ccc2[nH]c(-c3ccc(OC)cc3OC)cc(=O)c2c1` [Example 64]: 10.1%.
For the compound `Cc1ccc(-c2cc(=O)c3cccc(C(=O)OCCO)c3[nH]2)c(C)c1` [Example 136], the inhibition in vivo at 200 mg/kg is 26.9%.
On the same count and under the same terms, the same measure for `C=CCOC(=O)c1cccc2c1N=C(c1ccccc1Cl)CC2=O` [Example 110, Allyl 2-(2-chlorophenyl)-4-quinolone-8-carboxylate]: 19.2%; for `CCOC(=O)c1ccc2c(c1)C(=O)CC(c1ccccc1)=N2` [Example 4, Ethyl 2-phenyl-4-quinolone-6-carboxylate]: 14.2%; for `COC(=O)c1ccc2[nH]c(-c3ccccc3C)cc(=O)c2c1` [Example 41]: 18.9%.
As for `COC(=O)c1ccc2[nH]c(-c3ccco3)cc(=O)c2c1` [Example 76], the inhibition in vivo at 200 mg/kg was found to be 14.5%.
Turning to `CCOC(=O)CC(=O)COC(=O)c1cccc2c(=O)cc(-c3ccccc3Cl)[nH]c12` [Example 130], the inhibition in vivo at 200 mg/kg worked out at 18.3%.
For the compound `CCOC(=O)c1cccc2c(=O)cc(-c3ccc(OC)cc3OC)[nH]c12` [Example 108], the inhibition in vivo at 200 mg/kg worked out at 51%.
The same measure, in the same setting: the same measure for `CC(=O)OCCOC(=O)c1cccc2c(=O)cc(-c3ccccc3Cl)[nH]c12` [Example 118]: 27.9%.

Another assay concerns SRS-A (slow reacting substance of anaphylaxis) contraction of ileum. Briefly: Anti-SRS-A action using ileus of guinea pigs. It is filed as cell-based, Hartley strain male guinea pigs. Particulars: Cavia porcellus, 5 min, 1/1000 mM; guinea pig ileum; SRS-A 20 units; compound five minutes before; read-out: 1/1000 mM SRS-A Inhibition Ratio %. Summed up:
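Ileum from male Hartley guinea pigs (300 to 350 g) in oxygenated Tyrode with 10^-7 g/ml atropine and 10^-6 g/ml pyrilamine, contracted by 20 units SRS-A. Compound added five minutes before; isotonic contraction height compared with SRS-A alone.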
For `O=C(O)c1ccc2[nH]c(-c3ccccc3Cl)cc(=O)c2c1` [Example 22], the inhibition at 1 µM is 26.4%.
On the same count and under the same terms, next, `COC(=O)c1ccc2c(c1)C(=O)CC(c1ccccc1)=N2` [Example 1, Methyl 2-phenyl-4-quinolone-6-carboxylate]: 77%.
On the same count and under the same terms, next, `CCOCCOC(=O)c1cccc2c(=O)cc(-c3ccccc3Cl)[nH]c12` [Example 120]: 20.3%.
Still for that read-out and setting: the same measure for `CCOC(=O)c1cccc2c(=O)cc(-c3ccccc3C)[nH]c12` [Example 104]: 19.8%.
`COc1ccc(-c2cc(=O)c3cccc(C(=O)O)c3[nH]2)cc1OC` [Example 99]: the inhibition at 1 µM worked out at 21.7%.
The same measure, in the same setting: the same measure for `CCOC(=O)c1cccc2c(=O)cc(-c3ccc(C(C)C)cc3)[nH]c12` [Example 106]: 44%; for `CCOC(=O)c1cccc2c(=O)cc(-c3cccc(Cl)c3)[nH]c12` [Example 86]: 62.5%; for `COC(=O)c1ccc2[nH]c(-c3ccc(OC)cc3OC)cc(=O)c2c1` [Example 64]: 48.2%.
The same measure, in the same setting: the same measure for `Cc1ccc(-c2cc(=O)c3cccc(C(=O)OCCO)c3[nH]2)c(C)c1` [Example 136]: 15.4%; for `C=CCOC(=O)c1cccc2c1N=C(c1ccccc1Cl)CC2=O` [Example 110, Allyl 2-(2-chlorophenyl)-4-quinolone-8-carboxylate]: 18.9%; for `CCOC(=O)c1ccc2c(c1)C(=O)CC(c1ccccc1)=N2` [Example 4, Ethyl 2-phenyl-4-quinolone-6-carboxylate]: 27.5%.
Same read-out and setting: the same measure for `COC(=O)c1ccc2[nH]c(-c3ccccc3C)cc(=O)c2c1` [Example 41]: 29.1%; for `COC(=O)c1ccc2[nH]c(-c3ccco3)cc(=O)c2c1` [Example 76]: 25.6%.
As for `CCOC(=O)CC(=O)COC(=O)c1cccc2c(=O)cc(-c3ccccc3Cl)[nH]c12` [Example 130], the inhibition at 1 µM was determined as 12.7%.
Still for that read-out and setting: the same measure for `CCOC(=O)c1cccc2c(=O)cc(-c3ccc(OC)cc3OC)[nH]c12` [Example 108]: 95%.
The same measure, in the same setting: next, `CC(=O)OCCOC(=O)c1cccc2c(=O)cc(-c3ccccc3Cl)[nH]c12` [Example 118]: 64.2%.

The assay is the same for the next values; noted with them: guinea pig ileum, SRS-A 20 units, compound five minutes before, 5 min.
As for “Ethyl 2-phenyl-4-quinolone-8-carboxylate [Example 80]”, the “1/1000 mM SRS-A Inhibition Ratio %” value is 52.4%.

In the next assay the test system is passive cutaneous anaphylaxis (DNP-As homocytotropic antiserum). Briefly: passive cutaneous anaphylatic assay (PCA) in rats. It is filed as in vivo, Wistar strain rats. Particulars: 10 mg/kg orally, one hour before antigen. Summed up:
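Wistar rats were sensitised intradermally with diluted DNP-As homocytotropic antiserum and challenged 72 h later with i.v. DNP-As plus Evans Blue. Compounds were given orally at 10 mg/kg 1 h before antigen. Dye extracted from skin sites 30 min post-challenge gave inhibition relative to controls.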
“Ethyl 2-phenyl-4-quinolone-8-carboxylate [Example 80]”: the “PCA Inhibition Ratio %” value was 20.9%.

Staying with this assay, now noted: Rattus norvegicus, po, 1 h, 10 mg/kg orally, one hour before antigen, read-out: PCA Inhibition Ratio %.
Regarding `O=C(O)c1ccc2[nH]c(-c3ccccc3Cl)cc(=O)c2c1` [Example 22], the inhibition in vivo at 10 mg/kg came to 35.8%.
Still for that read-out and setting: next, `COC(=O)c1ccc2c(c1)C(=O)CC(c1ccccc1)=N2` [Example 1, Methyl 2-phenyl-4-quinolone-6-carboxylate]: 25.4%.
`CCOCCOC(=O)c1cccc2c(=O)cc(-c3ccccc3Cl)[nH]c12` [Example 120]: the inhibition in vivo at 10 mg/kg came out at 10.7%.
Same read-out and setting: next, `CCOC(=O)c1cccc2c(=O)cc(-c3ccccc3C)[nH]c12` [Example 104]: 10.4%.
`COc1ccc(-c2cc(=O)c3cccc(C(=O)O)c3[nH]2)cc1OC` [Example 99]: the inhibition in vivo at 10 mg/kg worked out at 13.2%.
Same read-out and setting: the same measure for `CCOC(=O)c1cccc2c(=O)cc(-c3ccc(C(C)C)cc3)[nH]c12` [Example 106]: 33.4%.
The same measure, in the same setting: the same measure for `CCOC(=O)c1cccc2c(=O)cc(-c3cccc(Cl)c3)[nH]c12` [Example 86]: 20.1%.
The same measure, in the same setting: the same measure for `COC(=O)c1ccc2[nH]c(-c3ccc(OC)cc3OC)cc(=O)c2c1` [Example 64]: 17.7%; for `Cc1ccc(-c2cc(=O)c3cccc(C(=O)OCCO)c3[nH]2)c(C)c1` [Example 136]: 19.4%; for `C=CCOC(=O)c1cccc2c1N=C(c1ccccc1Cl)CC2=O` [Example 110, Allyl 2-(2-chlorophenyl)-4-quinolone-8-carboxylate]: 17.7%.
With `CCOC(=O)c1ccc2c(c1)C(=O)CC(c1ccccc1)=N2` [Example 4, Ethyl 2-phenyl-4-quinolone-6-carboxylate], the inhibition in vivo at 10 mg/kg was determined as 25.7%.
In the case of `COC(=O)c1ccc2[nH]c(-c3ccccc3C)cc(=O)c2c1` [Example 41], the inhibition in vivo at 10 mg/kg was 29.5%.
On the same count and under the same terms, the same measure for `COC(=O)c1ccc2[nH]c(-c3ccco3)cc(=O)c2c1` [Example 76]: 21.3%; for `CCOC(=O)CC(=O)COC(=O)c1cccc2c(=O)cc(-c3ccccc3Cl)[nH]c12` [Example 130]: 20.3%.
With `CCOC(=O)c1cccc2c(=O)cc(-c3ccc(OC)cc3OC)[nH]c12` [Example 108], the inhibition in vivo at 10 mg/kg was found to be 14%.
The same measure, in the same setting: the same measure for `CC(=O)OCCOC(=O)c1cccc2c(=O)cc(-c3ccccc3Cl)[nH]c12` [Example 118]: 41.5%.
